Data reported in patent US12268694B2, “Combination pharmaceutical agents as RSV inhibitors” (Enanta Pharmaceuticals, Inc., priority 2017, dated 2025).
pEC50: −log10 of the molar value. Where two headings read alike, the source gives them in different places.

Test system: genotype A, "Long" strain RSV
Assay: RSV-A assay: CPE protection in HEp-2 cells, ATPlite readout
Type: cell-based, human respiratory syncytial virus
Description: HEp-2 cells, (originally derived from tumors grown in irradiated-cortisonised weanling rats that had been injected with epidermoid carcinoma tissue from a person's larynx, but later found to be indistinguishable from HeLa cells by PCR DNA analysis), were used for the culturing of genotype A, “Long” strain RSV. Flasks were inoculated with RSV and viral stocks were collected once cytopathic effect (CPE) was greater than 90%. Viral stocks in 25% sucrose media were snap frozen using liquid nitrogen to increase viral stability. Viral stock titers were quantified by tissue culture infectious dose 50% (TCID50) using 8,000 cells per well and 3-fold viral dilutions across a 96-well plate, cultured for 4 days. Viral stock titers were also quantified by a plaque forming unit assay, as described elsewhere.
Following extensive parameter testing, the final assay is run as follows: HEp-2 cells are seeded into the inner 60 wells of a 96-well plate at 8,000 cells per well in a volume of 50 μL using Growth Media (DMEM without phenol red, 1% L-Glut, 1% Penn/Strep, 1% nonessential amino acids, 10% heat-inactivated FBS). 2-fold serial dilutions of control and test compounds are added to the wells in duplicate in a total volume of 25 μL. Viral stock is then added to the wells at a multiplicity of infection (MOI) of 0.1 in a volume of 25 μL, bringing the total volume of each well to 100 μL. The MOI is calculated using the PFU/mL, or TCID50 if unavailable. Each 96-well plate has a control column of 6 wells with cells and virus but no compound (negative control, max CPE), a column with cells but no compound or virus (positive control, minimum CPE), and a column with no cells or virus or compound (background plate/reagent control). The control wells with cells but no virus are given an additional 25 μL of growth media containing an equal quantity of sucrose as those wells receiving the viral stock in order to keep consistent in media and volume conditions. The outer wells of the plate are filled with 125 μL of moat media (DMEM, 1% Penn/Strep) to act as a thermal and evaporative moat around the test wells. Following a 5-day incubation period, the plates are read using ATPlite (50 μL added per well), which quantifies the amount of ATP (a measure of cell health) present in each well. Assay plates are read using the Envision luminometer. In parallel, cytotoxicity is examined on an additional 96-well plate treated in an identical manner, but substituting the 25 μL of viral stock for 25 μL of growth media. […] EC50 ranges are as follows: A <0.4 μM; B 0.4-0.8 μM; C >0.8 μM and CC50 ranges are as follows: A >50 μM; B 10-50 μM; C <10 μM.

[1] = human respiratory syncytial virus, HEp-2, read-out: Human RSV-A (“Long” strain) EC50

Row | Compound | pEC50 [1] | pEC50 (HEp-2 cells, RSV-A Long strain, ATPlite readout, read-out: Human RSV-A (“Long” strain) EC50)
1 | O=C1Nc2ccccc2C(c2ccccc2)=N[C@@H]1Nc1nnc(-c2ccccc2N2CCOCC2)o1 [Example 125a] | > 6.40 | 
2 | O=C1Nc2ccccc2C(c2ccccc2)=NC1Nc1nnc(-c2ncc(C(F)(F)F)cc2CCO)o1 (stereo not drawn) [Example 450] | < 6.10 | 
3 | O=C1Nc2ccccc2C(c2ccccc2)=N[C@@H]1Nc1nnc(-c2oc3ncccc3c2N2CCOCC2)o1 [Example 404] | > 6.40 | 
4 | COc1cc(-c2nnc(NC3N=C(c4ccccc4)c4ccccc4NC3=O)o2)ccc1-n1cnc(C)c1 (stereo not drawn) [Example 219] | < 6.10 | 
5 | COCCNc1sccc1-c1nnc(N[C@H]2N=C(c3ccccc3)c3ccccc3NC2=O)o1 [Example 472] | < 6.10 | 
6 | O=C1Nc2ccccc2C(c2ccccc2)=N[C@H]1Nc1nnc(-c2ccccc2N2CCOCC2)o1 [Example 125b] | < 6.10 | 
7 | COCCn1nccc1-c1nnc(N[C@H]2N=C(c3ccccc3)c3ccccc3NC2=O)o1 [Example 310] | < 6.10 | 
8 | O=C1Nc2ccccc2C(c2ccccc2)=NC1Nc1nnc(-c2ccncc2)[nH]1 (stereo not drawn) [Example 366] | < 6.10 | 
9 | CN(c1nnc(-c2ccc(F)cc2)o1)C1N=C(c2ccccc2)c2ccccc2NC1=O (stereo not drawn) [Example 209] | < 6.10 | 
10 | O=C1Nc2ccccc2C(c2ccccc2)=NC1Nc1ncc(-c2ccc(F)cc2)o1 (stereo not drawn) [Example 369] | < 6.10 | 
11 | O=C1Nc2ccccc2C(c2ccccc2)=NC1Nc1nnc(-c2cccnc2N2CC3CCC(C2)O3)o1 (stereo not drawn) [Example 266] | 6.10 to 6.40 | 
12 | C#Cc1nc(-c2nnc(N[C@H]3N=C(c4ccccc4)c4ccccc4NC3=O)o2)c(N2CCOCC2)s1 [Example 406] | > 6.40 | 
13 | O=C1Nc2ccccc2C(c2ccccc2)=NC1Nc1nnc(C2CC2)[nH]1 (stereo not drawn) [Example 372] | < 6.10 | 
14 | O=C1Nc2ccccc2C(c2ccccc2)=NC1Nc1nnc(-c2cccnc2N2C[C@@H]3C[C@H]2CO3)o1 (stereo partly drawn) [Example 248] | < 6.10 | 
15 | O=C1Nc2ccccc2C(c2ccccc2)=N[C@@H]1Nc1nnc(-c2ccc(F)nc2N2CCOCC2)o1 [Example 151, (S)-3-((5-(6-fluoro-2-morpholinopyridin-3-yl)-1,3,4-oxadiazol-2-yl)amino)-5-phenyl-1,3-dihydro-2H-benzo[e][1,4]diazepin-2-one] | > 6.40 | 
16 | Cc1cc(-c2nnc(NC3N=C(c4ccccc4)c4ccccc4NC3=O)o2)ccc1N1CCOCC1 (stereo not drawn) [Example 113] | 6.10 to 6.40 | 
17 | O=C1Nc2ccccc2C(c2ccccc2)=NC1Nc1nnc(-c2ccccc2C2CCOCC2)o1 (stereo not drawn) [Example 354] | < 6.10 | 
18 | COCC(C)(C)Nc1cc(C(F)(F)F)cnc1-c1nnc(N[C@H]2N=C(c3ccccc3)c3ccccc3NC2=O)o1 [Example 414] | < 6.10 | 
19 | COCCOc1ccc(-c2nnc(NC3N=C(c4ccccc4)c4ccccc4NC3=O)o2)cc1 (stereo not drawn) [Example 236] | < 6.10 | 
20 | O=C1Nc2ccccc2C(c2ccccc2)=N[C@@H]1Nc1nnc(-c2nc(C3(C(F)(F)F)CCC3)sc2N2CCOCC2)o1 [Example 490] | > 6.40 | 
21 | O=C1Nc2ccccc2C(c2ccccc2)=NC1Nc1nnc(-c2ccc(N3CCOCC3)cc2Cl)o1 (stereo not drawn) [Example 122] | < 6.10 | 
22 | COC1CCN(c2ncccc2-c2nnc(NC3N=C(c4ccccc4)c4ccccc4NC3=O)o2)CC1 (stereo not drawn) [Example 254] | < 6.10 | 
23 | CN1C(=O)C(Nc2nnc(-c3ccc(F)cc3)o2)N=C(c2ccccc2)c2ccccc21 (stereo not drawn) [Example 201] | < 6.10 | 
24 | O=C1Nc2ccccc2C(c2ccccc2)=N[C@@H]1Nc1nnc(-c2ncc(N3CCCC3)cc2N2CCOCC2)o1 [Example 314] | > 6.40 | 
25 | O=C1Nc2ccccc2C(c2ccccc2)=N[C@H]1Nc1nnc(-c2nc(C(F)(F)F)sc2N2CCO[C@H]3C[C@H]32)o1 [Example 487] |  | < 6.10
26 | O=C1Nc2ccccc2C(c2ccccc2)=NC1Nc1nnc(CCc2ccccc2)o1 (stereo not drawn) [Example 199] | < 6.10 | 
27 | O=C1Nc2ccccc2C(c2ccccc2)=N[C@H]1Nc1nnc(-c2ccc(N3CCOCC3)cc2F)o1 [Example 126b] | < 6.10 | 
28 | O=C1Nc2ccccc2C(c2ccccc2)=N[C@@H]1Nc1nnc(-c2cnc(-n3cccn3)nc2N2CCOCC2)o1 [Example 172] | < 6.10 | 
29 | O=C1Nc2ccccc2C(c2ccccc2)=N[C@@H]1Nc1nnc(-c2ccc(C(F)(F)F)cc2N2CCOCC2)o1 [Example 152] | > 6.40 | 
30 | O=C1Nc2ccccc2C(c2ccccc2)=N[C@@H]1Nc1nnc(-c2ccc(N3C4CCC3COC4)cc2Cl)o1 [Example 244] | < 6.10 | 
